Paper PMC11724075, “Small-molecule-induced ERBB4 activation to treat heart failure” (Nature Communications, 2025)
Values joined by “and” are separate entries in the source; they are usually repeats but may differ in a detail not shown here. Identical values can stand only once.

Test system: mouse model of MI
Assay: Mouse model of MI (LAD ligation), echocardiography
Assay type: in vivo
Design: left-ventricular end-diastolic volume / left-ventricular end-systolic volume: unit not given here
Protocol: Twelve-week-old female and male Balb/cJ (Charles River, 000651) mice were randomized into either the ctrl or MI group. Mice in the MI group underwent surgical ligation of the LAD, while mice in the ctrl group underwent a sham procedure (n = 8 female mice, n = 10 male mice). Briefly, all mice received an injection of 0.1 mg/kg buprenorphine (Produlab Pharma) before induction of anesthesia with 8% sevoflurane (Zoetis). Anesthesia was maintained with 4.5% sevoflurane and mice were intubated and ventilated. An incision of 15 mm was made on the left side of the thorax and the thoracic cavity was opened at the third intercostal space using blunt forceps. The LAD was permanently ligated with a 8/0 polypropylene monofilament sutures (Ethicon, F1894) after which the thoracic cavity and skin were closed with 6/0 polypropylene monofilament sutures (Ethicon, F1841). and 5/0 polyamide 6 sutures (Ethilon, F2412H), respectively. Mice received another dose of 0.1 mg/kg buprenorphine 6–8 h after the initial dose. Two days after surgery, cardiac ultrasound was performed to exclude mice without successful MI (i.e. displaying hypokinesia in ≥2 out of 5 segments). […] Cardiac ultrasound was performed weekly. After 4 weeks of treatment, mice were euthanized, and hearts were collected.
Echocardiography was performed using the Vevo F2-LAZRX (FUJIFILM VisualSonics) and UHF57x probe. Mice were anesthetized with 1.5% isoflurane (Alvira, BE-V512222). Parasternal long-axis B-mode images and M-mode images were obtained and analyzed using VevoLAB software (FUJIFILM VisualSonics, Version 5.7.1). For the AngII experiments, measurements were obtained through analysis of the short-axis M-mode. For the MI experiments, measurements were obtained through analysis of the parasternal long-axis B-mode, of which the area and end-volume of the left ventricular cavity in diastole and systole were determined by tracing the endocardial border. Acquisitions, measurements and analyses were performed blinded.
Supplementary Table 2. Echocardiographic parameters. […]
Echocardiographic parameters obtained through left ventricular trace analysis of the parasternal long-axis obtained in B-mode in female wild-type mice that underwent a sham or MI operation: mice with […]
in MI/EF-1 group). (g) Echocardiographic parameters obtained through left ventricular trace analysis of the parasternal long-axis obtained in B-mode in male wild-type mice that underwent a sham or MI […]
male mice in MI/Veh group for T2 and T4). Echocardiographic parameters were measured weekly (indicated by ‘T’). All data are presented as mean (value of individual mice) ± SD, two-tailed unpaired […]
1 groups. Source data are provided as a Source Data file. AngII, angiotensin II; ANOVA, analysis of variance; Ctrl, control; DOX, doxorubicin; EF, ejection fraction; ERBB4, erythroblastic leukemia viral oncogene homolog 4; FS, fractional shortening; IVSd, interventricular septum thickness in diastole; IVSs, interventricular septum thickness in systole; LVIDd, left ventricular internal diameter in diastole; LVIDs, left ventricular internal diameter in systole; LVPWd, left ventricular posterior wall thickness in diastole; LVPWs, left ventricular posterior wall thickness in systole; MI, myocardial infarction; NA, non-activating pharmacophore-containing compound; SD, standard variation; Veh, vehicle.

[1] = Myocardial infarction, female wild-type mice, MI/EF-1, T0
[2] = Myocardial infarction, female wild-type mice, MI/EF-1, T2
[3] = Myocardial infarction, female wild-type mice, MI/EF-1, T3
[4] = Myocardial infarction, female wild-type mice, MI/EF-1, T4
[5] = Myocardial infarction, male wild-type mice, MI/EF-1, T0
[6] = Myocardial infarction, male wild-type mice, MI/EF-1, T2
[7] = Myocardial infarction, male wild-type mice, MI/EF-1, T3
[8] = Myocardial infarction, male wild-type mice, MI/EF-1, T4
[9] = female wild-type mice, MI/EF-1, T0, mean ± SD
[10] = female wild-type mice, MI/EF-1, T2, mean ± SD
[11] = female wild-type mice, MI/EF-1, T3, mean ± SD
[12] = female wild-type mice, MI/EF-1, T4, mean ± SD
[13] = male mice, MI/EF-1, 0 weeks after MI
[14] = male wild-type mice, MI/EF-1, T0, mean ± SD
[15] = male wild-type mice, MI/EF-1, T2, mean ± SD
[16] = male wild-type mice, MI/EF-1, T3, mean ± SD
[17] = male wild-type mice, MI/EF-1, T4, mean ± SD

O=C(NC1CC1)C(Sc1nc2ccccc2c(=O)n1C1CCCC1)c1ccccc1 (stereo not shown) [EF-1] showed an LVEDA [1] of 21.8 ± 1.4 mm², an LVEDV [1] of 56.7 ± 5.5 µL and an LVESA [1] of 15.5 ± 2.1 mm². For the same compound, the LVESV [1] was 32.7 ± 6.7 µL, the LVEDA [2] was 25.7 ± 1.6 mm² and the LVEDV [2] was 73.6 ± 9.1 µL. The LVESA [2] was 20.8 ± 2.9 mm², the LVESV [2] was 53.9 ± 14.5 µL and the LVEDA [3] was 26.5 ± 4.5 mm². It also gave an LVEDV [3] of 80.3 ± 22.9 µL, an LVESA [3] of 21.2 ± 5.8 mm² and an LVESV [3] of 56.6 ± 25.0 µL. It also gave an LVEDA [4] of 26.5 ± 4.5 mm², an LVEDV [4] of 80.3 ± 22.9 µL and an LVESA [4] of 21.2 ± 5.8 mm². The LVESV [4] was 56.6 ± 25.0 µL, the LVEDA [5] was 24.7 ± 3.9 mm² and the LVEDV [5] was 67.1 ± 15.6 µL. For the same compound, the LVESA [5] was 17.6 ± 2.8 mm², the LVESV [5] was 37.3 ± 8.9 µL and the LVEDA [6] was 34.8 ± 5.5 mm². It also gave an LVEDV [6] of 118.7 ± 30.8 µL, an LVESA [6] of 29.7 ± 6.7 mm² and an LVESV [6] of 93.3 ± 36.1 µL. The LVEDA [7] was 36.6 ± 5.9 mm², the LVEDV [7] was 124.6 ± 35.3 µL and the LVESA [7] was 31.3 ± 8.0 mm². For the same compound, the LVESV [7] was 100.4 ± 42.0 µL, the LVEDA [8] was 35.9 ± 6.9 mm² and the LVEDV [8] was 119.8 ± 37.5 µL. The LVESA [8] was 30.5 ± 7.7 mm², the LVESV [8] was 92.5 ± 40.6 µL and the “effect on MI-induced increase in LVEDV and LVESV (in words)” value (female mice, four-week treatment, EF-1 2 mg/kg/day) was “significantly attenuated the increase in LVEDV and LVESV”. For the same compound, the “effect on left ventricular ejection fraction (in words)” value (female mice, four-week treatment, p = 0.0858) was “trend towards an increased EF”, the “EF (ejection fraction)” value [9] was 42.7 ± 8.1% and the LVEDA [9] was 21.8 ± 1.4 mm². The LVEDV [9] was 56.7 ± 5.5 µL, the LVESA [9] was 15.5 ± 2.1 mm² and the LVESV [9] was 32.7 ± 6.7 µL. For the same compound, the “EF (ejection fraction)” value [10] was 27.4 ± 14.1%, the LVEDA [10] was 25.7 ± 1.6 mm² and the LVEDV [10] was 73.6 ± 9.1 µL. The LVESA [10] was 20.8 ± 2.9 mm², the LVESV [10] was 53.9 ± 14.5 µL and the “EF (ejection fraction)” value [11] was 32.2 ± 12.4%. The LVEDA [11] was 26.5 ± 4.5 mm², the LVEDV [11] was 80.3 ± 22.9 µL and the LVESA [11] was 21.2 ± 5.8 mm². The LVESV [11] was 56.6 ± 25.0 µL, the “EF (ejection fraction)” value [12] was 32.2 ± 12.4% and the LVEDA [12] was 26.5 ± 4.5 mm². It also gave an LVEDV [12] of 80.3 ± 22.9 µL, an LVESA [12] of 21.2 ± 5.8 mm² and an LVESV [12] of 56.6 ± 25.0 µL. For the same compound, the “effect on LVEDV, LVESV, or EF (in words)” value (male mice) was “did not have affect LVEDV, LVESV, or EF”, the ejection fraction [13] was 45.4182 and 46.7993 and 31.6272 and 37.5306 and 56.6563 and the left-ventricular end-diastolic volume [13] was 76.7178 and 76.3835 and 40.6948 and 76.4847 and 65.2387. The left-ventricular end-systolic volume [13] was 41.874 and 40.6361 and 27.8242 and 47.7795 and 28.2468, the left-ventricular end-diastolic volume (male mice, MI/EF-1, 3 weeks after MI) was 90.4868 and 146.112 and 167.204 and 86.1633 and 133.043 and the “EF (ejection fraction)” value [14] was 43.6 ± 9.5%. It also gave an LVEDA [14] of 24.7 ± 3.9 mm², an LVEDV [14] of 67.1 ± 15.6 µL and an LVESA [14] of 17.6 ± 2.8 mm². The LVESV [14] was 37.3 ± 8.9 µL, the “EF (ejection fraction)” value [15] was 23.2 ± 12.8% and the LVEDA [15] was 34.8 ± 5.5 mm². It also gave an LVEDV [15] of 118.7 ± 30.8 µL, an LVESA [15] of 29.7 ± 6.7 mm² and an LVESV [15] of 93.3 ± 36.1 µL. For the same compound, the “EF (ejection fraction)” value [16] was 22.0 ± 15.7%, the LVEDA [16] was 36.6 ± 5.9 mm² and the LVEDV [16] was 124.6 ± 35.3 µL. The LVESA [16] was 31.3 ± 8.0 mm², the LVESV [16] was 100.4 ± 42.0 µL and the “EF (ejection fraction)” value [17] was 25.2 ± 11.5%. The LVEDA [17] was 35.9 ± 6.9 mm², the LVEDV [17] was 119.8 ± 37.5 µL and the LVESA [17] was 30.5 ± 7.7 mm². The LVESV [17] was 92.5 ± 40.6 µL.
